Values of other authors as cited in patent US10632083B2, “Ophthalmic compositions” (SaCSh Corp., priority 2016, dated 2020).

[H]/N=C(\N/C(=N/[H])NCCCCCCNC(=N)NC(=N)Nc1ccc(Cl)cc1)Nc1ccc(Cl)cc1 [chlorhexidine, N,N″″1,6-Hexanediylbis[N′-(4-chlorophenyl)(imidodicarbonimidic diamide)]]
eye damage after topical chlorhexidine accidentally got into the eyes (Tabor et al. 1989, four cases): irreversible corneal damage
eye damage after accidental application to patients undergoing eye surgery (van Rij et al. 1995, led to bullous keratopathy, all affected patients required corneal transplant): immediate corneal edema
